We go through one compound from patent publication US6054441A, “Oxypurine nucleosides and their congeners, and acyl derivatives thereof, for improvement of hematopoiesis” (priority 1995, dated 2000).

For one test, the system named is leukocytes. The note with it: 100 mg i.p.; after 10 hours and for 24 hours thereafter; cited from earlier work.
The test system of test [1] is hematopoietic recovery after cyclophosphamide. Put plainly: Hematopoietic recovery after cyclophosphamide, acyl chain length (Example 38). The note with it: day 7; guanosine 5, acyl derivatives 2.5 μmoles/mouse/day i.p. It is filed as in vivo, Balb/C mice. How it is done:
Cyclophosphamide (CP) (275 mg/kg, i.p.) was administered to 70 Balb/C female mice weighing approximately 20 grams each. Twenty-four hours later and each day thereafter for a total of 6 days, mice were given a 0.4 ml i.p injection of either physiological saline (controls), Tween 80 (0.2%), guanosine (5 μmoles/mouse/day in 0.2% Tween 80), or 2.5 μmoles per mouse per day of one of the following acylated derivatives of guanosine in 0.2% Tween 80: triacetylguanosine, octanoylguanosine, lauroylguanosine, or palmitoylguanosine. On day 7 following CP administration all 10 animals from each of the 7 groups were bled, and then sacrificed by cervical dislocation. Spleens were removed and weighed, and complete blood counts performed.

The test system is the same in test [2]. Put plainly: Hematopoietic recovery after cyclophosphamide (Example 37). The note with it: 5 μmoles/mouse/day i.p. 6 days; day 7; vs saline. It is filed as in vivo, Balb/C mice. As for the experimental part:
Twenty-four hours later and each day thereafter for a total of 6 days, mice were given a 0.4 ml i.p. injection of either physiological saline (controls), guanine (5 μmoles/mouse/day), or guanosine (5 μmoles/mouse/day). On day 7 all 10 mice in each of the three groups were bled, and then sacrificed by cervical dislocation. Spleens were removed and weighed, and complete blood cell counts performed.

For test [3], the system named is human myeloid leukemia cell line (HL-60). Particulars: HL-60 with inducing agents; cited from earlier work.

Consider `Nc1nc2c(ncn2[C@@H]2O[C@H](CO)[C@@H](O)[C@H]2O)c(=O)[nH]1` [guanosine], for which the “leukocyte counts, leukocytosis” value in the test on leukocytes was 11,000 per mm^3. For the same compound, in test [1], the spleen weight entry is given as “No significant difference”. Moreover, in test [2], the Neutrophils result is reported as “significantly more”, the spleen weight result is “significantly heavier spleens” and the “total white blood cells” value was “significantly more”. For the same compound, the “effect on induced maturation of HL-60 cells” value in test [3] was “prevented their induced maturation into functional neutrophils”.
